Measurements: US20210284691A1, “CBX8 CHROMDOMAIN INHIBITORS AND THE USES THEREOF” (Purdue Research Foundation, priority 2019, published 2021)
Square brackets hold non-standard residues; d marks the D form. Peptide text beside a SMILES is read from it. * marks the point of attachment. Tyr(3-Cl) = N[C@@H](Cc1ccc(O)c(Cl)c1)C(=O)O; Benzoyl(3,5-Cl2) = O=C(c1cc(Cl)cc(Cl)c1)*; Lys(Et2) = CCN(CC)CCCC[C@H](N)C(=O)O; Gly(cPent) = N[C@H](C(=O)O)C1CCCC1; NH(propargyl) = C#CCN*

Key:
[1] = target: T1, CBX8 binding to chromatin (Homo sapiens, UniProt Q9HC52); assay: ChIP-qPCR in Hs68 fibroblast cells; format: cell-based; conditions: 100 μM, 4 h
T1 construct: endogenous in cells; host or cells: Hs68 fibroblasts (A16); HEK293T (A19); K562 (A23)
T1 sequence (Q9HC52 1-389): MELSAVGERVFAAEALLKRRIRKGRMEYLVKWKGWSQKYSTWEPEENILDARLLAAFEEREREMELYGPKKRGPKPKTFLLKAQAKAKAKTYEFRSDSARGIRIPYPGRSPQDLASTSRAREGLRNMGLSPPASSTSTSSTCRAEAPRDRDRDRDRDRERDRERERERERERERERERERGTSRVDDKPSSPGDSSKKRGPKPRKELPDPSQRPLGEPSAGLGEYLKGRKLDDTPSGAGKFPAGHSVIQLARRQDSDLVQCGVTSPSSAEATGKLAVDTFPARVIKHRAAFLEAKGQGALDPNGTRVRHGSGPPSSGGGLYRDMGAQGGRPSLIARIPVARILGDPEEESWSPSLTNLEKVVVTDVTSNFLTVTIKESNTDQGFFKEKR
Method: ChIP: Hs68 cells were seeded at 4×10^6 in a 10 cm cell culture plates 16 hours prior to treatment. […] ChIP was performed as described in Connelly et al., 2018. Birefly, cells were washed with PBS and fixed on the plate with CiA Fix buffer (50 mM HEPES, pH 8.0, 1 mM EDTA, 0.5 mM ETGA, 100 mM NaCl) and 1% formaldehyde for 10 min at room temperature. Crosslinking was quenched with 0.125 M glycine for 5 min at 4° C. Cells were washed once with PBS and lifted off the plate then resuspended in CiA NP Rinse buffer 1 (50 mM HEPES pH 8.0, 140 mM NaCl, 1 mM EDTA, 10% glycerol, 0.5% NP-40, 0.25% Triton X) for 10 min. Cells were pelleted at 1200×g for 5 min at 4° C. The supernatant was removed, and the cells were resuspended in CiA NP rinse buffer 2 (10 mM Tris pH 8.0, 1 mM EDTA, 0.5 mM EGTA, 200 mM NaCl). Cells were collected by centrifugation, 1200×g for 5 min. Supernatant was removed and the cells were washed twice with shearing buffer (0.1% SDS, 1 mM EDTA, 10 mM Tris HCl, pH 8.0). Cells were resuspended in shearing buffer and sonicated for 7 min with the probe (Branson). Lysate was centrifuged at 21,000×g for 15 min to remove debris. Supernatant was collected and pre-cleared overnight with Protein A/G magnetic beads (Pierce). […]
(§1) qPCR: qPCR was performed on the isolated ChIP DNA using SYBR master mix (Thermo) and run on the BioRad CFX thermo cycler. […] Enrichment was determined by percent input. […]

[2] = target: T2, CBX7 binding to chromatin (Homo sapiens, UniProt O95931); assay: ChIP-qPCR in Hs68 fibroblast cells; format: cell-based; conditions: 100 μM, 4 h
T2 construct: endogenous in cells; host or cells: Hs68 fibroblasts (A17); HEK293T (A20)
T2 sequence (O95931 whole entry): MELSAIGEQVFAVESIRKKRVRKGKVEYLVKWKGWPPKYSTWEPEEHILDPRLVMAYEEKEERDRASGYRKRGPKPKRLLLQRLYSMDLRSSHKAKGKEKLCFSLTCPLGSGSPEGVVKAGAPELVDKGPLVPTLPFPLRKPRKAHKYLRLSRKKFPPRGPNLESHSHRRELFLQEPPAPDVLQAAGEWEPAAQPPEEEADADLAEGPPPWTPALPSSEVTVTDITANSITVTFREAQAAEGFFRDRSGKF
Method: ChIP: Hs68 cells were seeded at 4×10^6 in a 10 cm cell culture plates 16 hours prior to treatment. Cells were treated with 100 μM SW2-110A or DMSO for four hours. ChIP was performed as described in Connelly et al., 2018. Birefly, cells were washed with PBS and fixed on the plate with CiA Fix buffer (50 mM HEPES, pH 8.0, 1 mM EDTA, 0.5 mM ETGA, 100 mM NaCl) and 1% formaldehyde for 10 min at room temperature. Crosslinking was quenched with 0.125 M glycine for 5 min at 4° C. Cells were washed once with PBS and lifted off the plate then resuspended in CiA NP Rinse buffer 1 (50 mM HEPES pH 8.0, 140 mM NaCl, 1 mM EDTA, 10% glycerol, 0.5% NP-40, 0.25% Triton X) for 10 min. Cells were pelleted at 1200×g for 5 min at 4° C. The supernatant was removed, and the cells were resuspended in CiA NP rinse buffer 2 (10 mM Tris pH 8.0, 1 mM EDTA, 0.5 mM EGTA, 200 mM NaCl). Cells were collected by centrifugation, 1200×g for 5 min. Supernatant was removed and the cells were washed twice with shearing buffer (0.1% SDS, 1 mM EDTA, 10 mM Tris HCl, pH 8.0). Cells were resuspended in shearing buffer and sonicated for 7 min with the probe (Branson). Lysate was centrifuged at 21,000×g for 15 min to remove debris. […]
as §1

CBX8 binding at target loci, ChIP-qPCR [1]: significant reduction of CBX8 binding | CBX7 binding at target loci, ChIP-qPCR [2]: not CBX7 binding
SMILES: C#CCNC(=O)[C@H](CO)NC(=O)[C@H](CCCCN(CC)CC)NC(=O)[C@@H](NC(=O)[C@@H](NC(=O)[C@H](Cc1ccc(O)c(Cl)c1)NC(=O)c1cc(Cl)cc(Cl)c1)C1CCCC1)[C@@H](C)CC [SW2_152F] ({Benzoyl(3,5-Cl2)}-[Tyr(3-Cl)][Gly(cPent)]I[Lys(Et2)]S-{NH(propargyl)})
